# Patent EP2017264A1, “Substituted phenyl propargyl compounds, method for their manufacture and their use as herbicides and plant growth regulators” (BAYER CROPSCIENCE AG, priority 2007, dated 2009)
# Test: physchem
# Description: "LogP" = Verteilungskoeffizient in einem Zweiphasengemisch aus n-Octanol und Wasser.
# Die log P-Daten wurden in Übereinstimmung mit der EEC Direktive 79/831, Anlage V.A8 (Annex V.A8) mittels HPLC (High Performance Liquid Chromatography) auf einer Umkehrphase-Säule (reversed-phase column) (C18) mit folgenden Methoden bestimmt: Temperatur: 40°C; Mobile Phase: 0,1 % bzw. 0,06 %ige wässrige Ameisensäure oder 0,1 % wässriger Phosphorsäure und Acetonitril; linearer Gradient von 10% Acetonitril bis 90% bzw. 95 % Acetonitril. Die Kalibrierung wurde ausgeführt mit Hilfe unverzweigter Alkan-2-one (bestehend aus 3 bis 13 bzw.16 Kohlenstoff-Atomen) mit bekannten IogP-Werten (Bestimmung der IogP-Werte über die Retentionszeiten mittels linearer Interpolation zwischen zwei nachfolgenden Alkanonen).
row,Structure (SMILES),chromatographic logP
1,COc1ccccc1C=NOCC#Cc1ccc(F)c(SC)c1 [Beispiel 1.053],4.51
2,CCSc1cccc(C#CCON=Cc2ccccc2OC)c1 [Beispiel 1.056],4.9
3,COc1cc(F)ccc1C=NOCC#Cc1ccc(F)c(SC)c1 [Beispiel 1.066],4.58
4,CCSc1cccc(C#CCON=Cc2ccc(F)cc2OC)c1 [Beispiel 1.069],4.9
5,Cc1ccc(C#CCON=Cc2ccccc2Oc2ccc(Cl)cc2)cc1[S+](C)[O-] (stereo not drawn) [Beispiel 1.379],4.11
6,COc1ccccc1C=NOCC#Cc1cccc([S+]([O-])C(F)(F)F)c1 (stereo not drawn) [Beispiel 1.380],3.88
7,COc1ccccc1C=NOCC#Cc1ccccc1SC [Beispiel 1.386],4.23
8,COc1ccc(C=NOCC#Cc2cccc(CC#N)c2)c(OC)c1 [Beispiel 1.387],3.22
9,COc1ccc(C=NOCC#Cc2cccc(SC)c2)c(OC)c1 [Beispiel 1.388],4.4
10,COc1ccc(C=NOCC#Cc2cccc([S+](C)[O-])c2)c(OC)c1 (stereo not drawn) [Beispiel 1.389],2.42
11,COc1cccc(OC)c1C=NOCC#Cc1cccc(SC)c1 [Beispiel 1.393],3.77
12,COc1ccccc1C=NOCC#Cc1ccc(C#N)c(SC)c1 [Beispiel 1.394],3.94
13,COc1cc(F)ccc1C=NOCC#Cc1ccc(C#N)c(SC)c1 [Beispiel 1.395],3.97
14,COc1cccc(OC)c1C=NOCC#Cc1cccc([S+](C)[O-])c1 (stereo not drawn) [Beispiel 1.396],2.04
15,COc1cccc(OC)c1C=NOCC#Cc1cccc(CC#N)c1 [Beispiel 1.397],2.86
16,CCSc1cc(C#CCON=Cc2ccccc2OC)ccc1OC [Beispiel 1.398],4.45
17,CCSc1cc(C#CCON=Cc2ccc(F)cc2OC)ccc1OC [Beispiel 1.399],4.53
18,CC[S+]([O-])c1cc(C#CCON=Cc2ccccc2OC)ccc1OC (stereo not drawn) [Beispiel 1.401],3.07
19,CC[S+]([O-])c1cc(C#CCON=Cc2ccc(F)cc2OC)ccc1OC (stereo not drawn) [Beispiel 1.402],3.19
20,CCC(=NOCC#Cc1cccc(OC)c1)c1ccccc1 [Beispiel 1.403],4.45
21,CCC(=NOCC#Cc1cccc(C(F)(F)F)c1)c1ccccc1 [Beispiel 1.404],5.13
22,CCC(=NOCC#Cc1cccc(SC)c1)c1ccccc1 [Beispiel 1.405],4.84
23,CCC(=NOCC#Cc1cccc(CC#N)c1)c1ccccc1 [Beispiel 1.406],3.87

row,Structure (SMILES),chromatographic logP
1,CCC(=NOCC#Cc1cccc(OC)c1)c1ccc(C)cc1 [Beispiel 1.407],4.92
2,CCC(=NOCC#Cc1cccc(C(F)(F)F)c1)c1ccc(C)cc1 [Beispiel 1.408],5.53
3,CCC(=NOCC#Cc1cccc(SC)c1)c1ccc(C)cc1 [Beispiel 1.409],5.36
4,CCC(=NOCC#Cc1cccc(CC#N)c1)c1ccc(C)cc1 [Beispiel 1.410],4.18
5,CCC(=NOCC#Cc1cccc(OC)c1)c1ccc(F)cc1 [Beispiel 1.411],4.54
6,CCC(=NOCC#Cc1cccc(C(F)(F)F)c1)c1ccc(F)cc1 [Beispiel 1.412],5.13
7,CCC(=NOCC#Cc1cccc(SC)c1)c1ccc(F)cc1 [Beispiel 1.413],4.97
8,CCC(=NOCC#Cc1cccc(CC#N)c1)c1ccc(F)cc1 [Beispiel 1.414],3.88
9,CCC(=NOCC#Cc1cccc(OC)c1)c1ccccc1F [Beispiel 1.415],4.42
10,CCC(=NOCC#Cc1cccc(C(F)(F)F)c1)c1ccccc1F [Beispiel 1.416],5.03
11,CCC(=NOCC#Cc1cccc(SC)c1)c1ccccc1F [Beispiel 1.417],4.84
12,CCC(=NOCC#Cc1cccc(CC#N)c1)c1ccccc1F [Beispiel 1.418],3.72
13,CCC(=NOCC#Cc1cccc(CC#N)c1)c1cccc(Cl)c1Cl [Beispiel 1.419],4.84
14,CCC(=NOCC#Cc1cccc([S+](C)[O-])c1)c1ccccc1 (stereo not drawn) [Beispiel 1.420],2.93
15,CCC(=NOCC#Cc1cccc([S+](C)[O-])c1)c1ccc(C)cc1 (stereo not drawn) [Beispiel 1.421],3.46
16,CCC(=NOCC#Cc1cccc([S+](C)[O-])c1)c1cccc(Cl)c1Cl (stereo not drawn) [Beispiel 1.422],4.12
17,CCC(=NOCC#Cc1cccc([S+](C)[O-])c1)c1ccc(F)cc1 (stereo not drawn) [Beispiel 1.423],3.14
18,CCSc1cc(C#CCON=Cc2ccccc2OC)ccc1C [Beispiel 1.424],5.33
19,CCSc1cc(C#CCON=Cc2ccc(F)cc2OC)ccc1C [Beispiel 1.425],5.38
20,CC[S+]([O-])c1cc(C#CCON=Cc2ccccc2OC)ccc1C (stereo not drawn) [Beispiel 1.426],3.05
21,CC[S+]([O-])c1cc(C#CCON=Cc2ccc(F)cc2OC)ccc1C (stereo not drawn) [Beispiel 1.427],3.15
22,COc1ccccc1C=NOCC#Cc1cccc(OC(F)(F)F)c1 [Beispiel 1.428],4.72
23,COc1cc(F)ccc1C=NOCC#Cc1cccc(OC(F)(F)F)c1 [Beispiel 1.429],4.77

row,Structure (SMILES),chromatographic logP
1,COc1ccccc1C=NOCC#Cc1cccc(SC(C)C)c1 [Beispiel 1.430],5.24
2,COc1cc(F)ccc1C=NOCC#Cc1cccc(SC(C)C)c1 [Beispiel 1.431],5.26
3,C=CCSc1cccc(C#CCON=Cc2ccc(F)cc2OC)c1 [Beispiel 1.432],5.24
4,COc1cc(F)ccc1C=NOCC#Cc1ccc(OC)c(SC)c1 [Beispiel 1.433],4.32
5,COc1ccccc1C=NOCC#Cc1ccc(OC)c(SC)c1 [Beispiel 1.434],4.24
6,COc1cc(F)ccc1C=NOCC#Cc1ccc(F)c(SC)c1F [Beispiel 1.435],4.54
7,COc1ccccc1C=NOCC#Cc1ccc(F)c(SC)c1F [Beispiel 1.436],4.48
8,COc1ccccc1C=NOCC#Cc1ccc(F)c([S+](C)[O-])c1F (stereo not drawn) [Beispiel 1.437],2.66
9,COc1cc(F)ccc1C=NOCC#Cc1ccc(F)c([S+](C)[O-])c1F (stereo not drawn) [Beispiel 1.438],2.75
10,COc1ccccc1C=NOCC#Cc1cccc(F)c1F [Beispiel 1.439],4.29
11,COc1ccccc1C=NOCC#Cc1cc(C)c(F)c(SC)c1 [Beispiel 1.440],5.01
12,COc1cc(F)ccc1C=NOCC#Cc1cc(C)c(F)c(SC)c1 [Beispiel 1.441],5.05
13,COc1cc(F)ccc1C=NOCC#Cc1ccccc1SC [Beispiel 1.442],4.29
14,COc1cc(F)ccc1C=NOCC#Cc1cc(C)c(F)c([S+](C)[O-])c1 (stereo not drawn) [Beispiel 1.443],3.43
15,COc1ccccc1C=NOCC#Cc1cc(C)c(F)c([S+](C)[O-])c1 (stereo not drawn) [Beispiel 1.444],3.32
16,COc1ccccc1C=NOCC#Cc1ccccc1[S+](C)[O-] (stereo not drawn) [Beispiel 1.445],2.73
17,COc1cc(F)ccc1C=NOCC#Cc1ccccc1[S+](C)[O-] (stereo not drawn) [Beispiel 1.446],2.86
18,COc1cc(F)ccc1C=NOCC#Cc1ccc(F)c(F)c1SC [Beispiel 1.447],4.58
19,COc1cc(F)ccc1C=NOCC#Cc1ccc(F)c(F)c1[S+](C)[O-] (stereo not drawn) [Beispiel 1.448],2.78
20,COc1cc(F)ccc1C=NOCC#Cc1cc(SC)c(F)c(SC)c1 [Beispiel 1.449],5.17
21,COc1ccccc1C=NOCC#Cc1cc(SC)c(F)c(SC)c1 [Beispiel 1.450],5.05
22,CSc1cccc(C#CC(C)ON=Cc2cccc(C)n2)c1 (stereo not drawn) [Beispiel 3.085],3.79
23,CSc1cccc(C#CCON=C(C)c2cccc(C)n2)c1 [Beispiel 3.091],4.18

row,Structure (SMILES),chromatographic logP
1,CC(=NOCC#Cc1cccc([S+](C)[O-])c1)c1cccc(C)n1 (stereo not drawn) [Beispiel 3.092],1.75
2,CC(=NOCC#Cc1cccc(S(C)(=O)=O)c1)c1cccc(C)n1 [Beispiel 3.093],2.4
3,CC(=NOCC#Cc1cccc(CC#N)c1)c1cccc(C)n1 [Beispiel 3.094],2.96
4,CCC(=NOCC#Cc1cccc(SC)c1)c1cccc(C)n1 [Beispiel 3.095],4.77
5,CCC(=NOCC#Cc1cccc([S+](C)[O-])c1)c1cccc(C)n1 (stereo not drawn) [Beispiel 3.096],2.21
6,CCC(=NOCC#Cc1cccc(S(C)(=O)=O)c1)c1cccc(C)n1 [Beispiel 3.097],2.93
7,CCC(=NOCC#Cc1cccc(CC#N)c1)c1cccc(C)n1 [Beispiel 3.098],3.5
8,CSc1cccc(C#CCON=Cc2cc(C(F)(F)F)c(Cl)cn2)c1 [Beispiel 3.120],4.92
9,C[S+]([O-])c1cccc(C#CCON=Cc2cc(C(F)(F)F)c(Cl)cn2)c1 (stereo not drawn) [Beispiel 3.121],2.96
10,CCOc1nc(C=NOCC#Cc2cccc(SC)c2)ccc1F [Beispiel 3.125],4.76
11,CCOc1nc(C=NOCC#Cc2cccc([S+](C)[O-])c2)ccc1F (stereo not drawn) [Beispiel 3.126],2.78
12,CSc1cccc(C#CCON=Cc2nccnc2SC)c1 [Beispiel 4.078],4.18
13,CSc1nccnc1C=NOCC#Cc1cccc(CC#N)c1 [Beispiel 4.080],2.99
14,COc1nccnc1C=NOCC#Cc1cccc(SC)c1 [Beispiel 4.084],3.34
15,COc1nccnc1C=NOCC#Cc1cccc(CC#N)c1 [Beispiel 4.086],2.4
16,COc1nccnc1C=NOCC#Cc1cccc([S+](C)[O-])c1 (stereo not drawn) [Beispiel 4.090],1.57
17,COc1nccnc1C=NOCC#Cc1cccc(S(C)(=O)=O)c1 [Beispiel 4.091],1.99
18,COc1ncc(Cl)nc1C=NOCC#Cc1cccc(SC)c1 [Beispiel 4.092],4.03
19,COc1ncc(Cl)nc1C=NOCC#Cc1cccc(CC#N)c1 [Beispiel 4.094],3.09
20,COc1ncc(Cl)nc1C=NOCC#Cc1cccc([S+](C)[O-])c1 (stereo not drawn) [Beispiel 4.098],2.18
21,COc1nc(Cl)cnc1C=NOCC#Cc1cccc(SC)c1 [Beispiel 4.100],4.03
